These results are taken from BigSolDB 2.1.

The structures appear in SMILES notation.

Regarding `O=C(O)c1ccccc1O`, the solubility (mole fraction) (as a rule, the moles of solute divided by all moles in the saturated solution) came to 0.347 (in PEGDME 250, 293.15 K); 0.382 (in PEGDME 250, 298.15 K); 0.415 (in PEGDME 250, 303.15 K); 0.45 (in PEGDME 250, 308.15 K); 0.486 (in PEGDME 250, 313.15 K); 0.000205 (in water, 293.15 K). Moreover, the solubility (mole fraction) is, setting by setting: (in water, 298.15 K) 0.000251; (in water, 303.15 K) 0.000306; (in water, 308.15 K) 0.000372; (in water, 313.15 K) 0.00046.
The compound `CC(=O)Nc1ccc(O)cc1` returned a solubility (mole fraction) (in PEGDME 250, 293.15 K) of 0.15; a solubility (mole fraction) (in PEGDME 250, 298.15 K) of 0.174; a solubility (mole fraction) (in PEGDME 250, 303.15 K) of 0.196; a solubility (mole fraction) (in PEGDME 250, 308.15 K) of 0.216; a solubility (mole fraction) (in PEGDME 250, 313.15 K) of 0.236; a solubility (mole fraction) (in water, 293.15 K) of 0.00151. Besides, the solubility (mole fraction) by setting is: (in water, 298.15 K) 0.00201; (in water, 303.15 K) 0.0022; (in water, 308.15 K) 0.00288; (in water, 313.15 K) 0.00334.
